Assay results as given in patent EP1884251A1, “Use of fragrance compositions for the prevention of the development of indole based malodours from faecal and urine based soils” (Takasago International Corporation, priority 2006, dated 2008).

Test: Change in fragrance compound concentration during the indole inhibition test (GC-MS at start and after 24 hours)
Type: physicochemical
Conditions: in fresh human urine, room temperature; for Decrease in Fragrance Compounds after 24 hours (%) >60%: category >60%; for Decrease in Fragrance Compounds after 24 hours (%) 0-30%: category 0-30%
Protocol: Advantageously, the appropriate fragrance compounds may be selected by using the following preferred indole inhibition test which comprises the following steps: • A) 0.02g of fragrance and 0.02g of Tergitol 15-s-12 was added to 7g of fresh human urine in a 20 ml Headspace vial sealed with a PTFE faced septum and well mixed for 10 minutes using a magnetic stirrer. For a blank to test the suitability of a batch of fresh human urine, 7g of human urine was used with 0.02g of demineralised water and 0.02g of Tergitol 15-s-12. If a control was required, to test the efficacy of product base for example, the control contained 7g of human urine to which was added 0.02g of fragrance, minus the active agents and 0.02g of Tergitol 15-s-12. • B) The vials are placed in an autosampler tray at room temperature. • C) At different times the headspace in the vials is sampled for 5 minutes at 35°C by an SPME fibre (PDMS fibre ex Supelco) after 10 minutes at 35°C (incubation time). • D) The SPME fibre is desorbed 1 minute at 265°C from a CTC Combipal autosampler and injected in splitless mode onto an Agilent GC-MS 5973N with a HP-INNOWAX column (30m x 0.25 x 0.25). (Oven conditions : 50°C during 2min - to 250°C at 10°C/min - 250°C during 5 minutes). • E) Under the above GC-MS conditions, indole has a retention time of 19.14 minutes, and can be recognised by its characteristic ions (m/z 117, m/z 89 and m/z 90). • F) In the range of values determined in this work, the area of the indole peak (117) is linearly related to the actual concentration in the vial, and was used without further correction to establish the concentration of indole in "Active" and "Blank" and if present any "Control" fragrances. • G) The material is deemed to be active if the indole concentration in the test sample is below 0.01ppm (wt/wt) after 24 hours incubation at room temperature and the indole in the blank samples is between 0.25ppm (wt/wt) and 1.25ppm (wt/wt) indole after 24 hours storage at room temperature. • H) The change in the active ingredient concentration is determined by comparing measurements at the start of the experiment and after 24 hours using appropriate characteristic ions.
This can be determined by measuring the fragrance concentration in the sample containing the test cocktail at the start and end of the indole inhibition test as described in step I of the test. If the difference between the measurements is less than 60% preferably less than 30% then the material is considered as not to have changed sufficiently to alter the fragrance note and to be particularly preferred.
A sample of fresh human urine is divided into equal portions and a fragrance containing one or more of the effective materials was added as described in the Indole Inhibition Test. […] The samples were stored and after 24 hours the indole content and fragrance active content is measured by gas chromatography with mass spectrometric (GCMS) detection. Those formulations containing active ingredients prevented the formation of indole while both the unfragranced and the alcohol containing control samples had much greater quantities of indole present. Also for the active compounds a GCMS measurement indicated the extent to which the compound was itself consumed as part of the process. In table 2 the decrease in fragrance components has been classified into 3 categories and the letter Y indicates the appropriate category for the compounds which have been measured. The absence of a letter Y in any category means that the decrease has not been measured for that compound. Table 2. Examples of effective materials

| Compound | Decrease in Fragrance Compounds after 24 hours (%) 0-30% | further results |
| --- | --- | --- |
| CCCCCCCCCCC=O [Aldehyde C11] | – | Decrease in Fragrance Compounds after 24 hours (%) >60%: Y (Y= Yes) |
| O=Cc1ccccc1 [Benzaldehyde] | Y (Y= Yes) | – |
| O=C/C=C/c1ccccc1 [Cinnamic aldehyde] | Y (Y= Yes) | – |
| CC(C)=CCCC(C)=CC=O [Citral] | Y (Y= Yes) | – |
| C=C(C)C1CC=C(C=O)CC1 (stereo not shown) [Perilla aldehyde] | Y (Y= Yes) | – |
| CCC/C=C/C=O [Trans 2 hexenal] | – | Decrease in Fragrance Compounds after 24 hours (%) 0-60% (category 0-60%): Y (Y= Yes) |
| CCc1occc(=O)c1O [Veltol Plus] | – | Decrease in Fragrance Compounds after 24 hours (%) >60%: Y (Y= Yes) |
